Laboratory results from patent US20020169126A1, “Compositions and methods for inactivating the Akt oncogene and/or activating the p38 pro-apoptotic gene” (priority 2001, published 2002).
Structures can show the parent of a compound that is named as a salt. Starred links: 1 amine or outer side, 2 acyl side, 3 side chain; linkers in the order of their positions; H or OH if unused. Positions of bridges follow the written chain, without caps; N, C: chain ends. Non-standard residues stand in square brackets, D forms with d. Residues, ends and D or L forms follow the SMILES beside them. Chains are numbered I, II in the order given. Actinocin(9to1) = Cc1c2oc3c(C)ccc(C(=O)[*:1])c3nc-2c(C(=O)[*:2])c(N)c1=O; NMeV = CN[C@H](C(=O)O)C(C)C; Sar = CNCC(=O)O

Experiments:
[1] = cited from earlier work; for dose excreted or recovered in the urine: unchanged, intact or active drug; for absorption: oral
[2] = oral and parental routes; cited from earlier work
Akt = experiment: Relative Akt activity (Akt-p versus Akt-c) after blocking p38; type: cell-based, human; conditions: 20 μM, 8 hours, E1A stable expressing MDA-MB-231 cells
Protocol: (§1) In order to determine the relationships between the Akt pathway and the p38 pathway, experiments were performed with inhibitors of both pathways. Wortmannin was used to inhibit the Akt pathway. Wortmannin is a drug that inhibits P13K which is a signal protein that is directly upstream of Akt in the Akt pathway. A synthetic compound, SB203580, was used as a p38 specific inhibitor. Cells were serum starved overnight and were then treated with either SB203580 (20 μM) or Wortmannin (0.1 μM) for 4 hours, 8, hours, 16 hours, 24 hours, 36 hours. When p38 activity was blocked by SB203580 for 8 hours, the Akt activity was increased by approximately 3 fold in E1A stable expressing MDA-MB-231 cells. Whereas, when Akt activity was blocked by Wortmannin for 4 hours, the p38 activity was enhanced to approximately 6 fold. The relative p38 activity (p38-p versus p38-c) and relative Akt activity (Akt-p versus Akt-c) are illustrated in FIG. 2A and FIG. 2B respectively.

breast cancer cells = experiment: Sensitization to Taxol-mediated cytotoxicity; type: cell-based, human; conditions: blocking p38 activity, together with constitutively active Akt
Protocol: The indirect measure of the viable cells after exposure to Taxol using the metabolic conversion of tetrazolium salt (MTT) to formazan was used. Cells (3×10^3/well) were seeded in triplicate in 96-well culture plates in 0.2 ml of culture medium and allowed to adhere for 24 h. After exposure to Taxol for a certain period of time, 20 μl of MTT was then added to each well. Cells were cultured for an additional 2 h, and followed by addition of 100 μl of extraction buffer (20% SDS in 50% N,N-dimethyl formamide, pH 4.7). The cells were incubated overnight at 37° C., and the plates were absorbance at 570 nm was measured.

MDA-MB-231 cells = experiment: Taxol treatment of 231 vector and 231-E1A tumors in nude mice; type: in vivo
Description: To establish orthotopic breast cancer model in nude mice, human MDA-MB-231 cells were inoculated into the mammary fat pad (m.f.p.) of mouse. Tumor size were monitored and caculated on a weekly basis.
Expression of E1A enhanced the anti-tumor effect of the chemotherapeutic drug Taxol in nude mice in vivo and prolonged animal survival rate. […] TUNEL labeling of apoptotic cells in the tumor tissues with or without treatment of Taxol also confirms this. The treatment groups included the SN vehicle, SN-liposome-E1A, Taxol alone, and Taxol plus SN-E1A. At least 7 animals were included in each group.

p38 = experiment: Relative p38 activity (p38-p versus p38-c) after blocking Akt; type: cell-based, human; conditions: 0.1 μM, 4 hours
Protocol: as §1

For Cc1c2oc3c(C)ccc(C(=O)N[C@@H]4C(=O)N[C@H](C(C)C)C(=O)N5CCC[C@H]5C(=O)N(C)CC(=O)N(C)[C@@H](C(C)C)C(=O)O[C@@H]4C)c3nc-2c(C(=O)N[C@@H]2C(=O)N[C@H](C(C)C)C(=O)N3CCC[C@H]3C(=O)N(C)CC(=O)N(C)[C@@H](C(C)C)C(=O)O[C@@H]2C)c(N)c1=O [Actinomycin D] (I: T[dV]P[Sar][NMeV] / II: T[dV]P[Sar][NMeV]; ester I:1-I:C, II:1-II:C; linker I:N-II:N via Actinocin(9to1)), the “excreted intact into the bile” value ([1]; in vivo) is given as “Half of the dose” and the “dose excreted or recovered in the urine” value [1] is given as 10%.

In the case of O=C(O)CCCc1ccc(N(CCCl)CCCl)cc1 [Chlorambucil, 4-[bis(2-chlorethyl)amino] benzenebutanoic acid], the “absorption” value [1] is listed as “rapidly and completely absorbed from the gastrointestinal tract”.

In the case of N.N.[Cl][Pt][Cl] [Cisplatin], the “absorption” value [1] is listed as “not absorbed orally”.

For O=P1(N(CCCl)CCCl)NCCCO1 (stereo not shown) [Cyclophosphamide, 2H -1,3,2-Oxazaphosphorin-2-amine, N,N-bis(2-chloroethyl)tetrahydro-, 2-oxide, monohydrate], the local tolerance [2] is listed as “does not cause local vesication, necrosis, phlebitis or even pain”.

For COc1cccc2c1C(=O)c1c(O)c3c(c(O)c1C2=O)C[C@@](O)(C(C)=O)C[C@@H]3O[C@H]1C[C@H](N)[C@H](O)[C@H](C)O1 [Daunorubicin, 5,12-Naphthacenedione, (8S-cis)-8-acetyl-10-[(3-amino-2,3,6-trideoxy-a-L-lyxo-hexanopyranosyl)oxy]-7,8,9,10-tetrahydro-6,8,11-trihydroxy-10-methoxy-, hydrochloride], the “absorption” value [1] is given as “poor”.

In the case of COc1cccc2c1C(=O)c1c(O)c3c(c(O)c1C2=O)C[C@@](O)(C(=O)CO)C[C@@H]3O[C@H]1C[C@H](N)[C@H](O)[C@H](C)O1 [Doxorubicin, 5,12-Naphthacenedione, (8s-cis)-10-[(3-amino-2,3,6-trideoxy-a-L-lyxo-hexopyranosyl)oxy]-7,8,9,10-tetrahydro-6,8,11-trihydroxy-8-(hydroxyacetyl)-1-methoxy-hydrochloride], the “absorption” value [1] is given as “absorbed poorly”.

In the case of CO[C@@]12[C@H](COC(N)=O)C3=C(C(=O)C(C)=C(N)C3=O)N1C[C@@H]1N[C@@H]12 [Mitomycin], the “dose excreted or recovered in the urine” value [1] is given as “Approximately 10%”.

In the case of C[S+]([O-])c1ccc(-c2nc(-c3ccncc3)c(-c3ccc(F)cc3)[nH]2)cc1 (stereo not shown) [SB203580], the “increase of Akt activity” value (Akt) is reported as “approximately 3 fold” and the “effect on the ability of E1A to sensitize cells to Taxol-mediated cytotoxicity” value (breast cancer cells) is reported as “partially abrogated”.

In the case of CC(=O)O[C@H]1C(=O)[C@@]2(C)[C@H]([C@H](OC(=O)c3ccccc3)[C@]3(O)C[C@H](OC(=O)[C@H](O)[C@@H](NC(=O)c4ccccc4)c4ccccc4)C(C)=C1C3(C)C)[C@]1(OC(C)=O)CO[C@@H]1C[C@@H]2O [Taxol], the “therapeutic effect of Taxol in E1A tumors versus vector tumors” value (MDA-MB-231 cells; 231-E1A cells) is reported as “more dramatic therapeutic effect” and the “tumor growth under Taxol treatment” value (MDA-MB-231 cells; 231 vector and 231-E1A tumors) is reported as “repressed tumor growth”.

For CC[C@]1(O)C[C@@H]2CN(CCc3c([nH]c4ccccc34)[C@@](C(=O)OC)(c3cc4c(cc3OC)N(C)[C@H]3[C@@](O)(C(=O)OC)[C@H](OC(C)=O)[C@]5(CC)C=CCN6CC[C@]43[C@@H]65)C2)C1 [Vinblastine], the “absorption” value [1] is listed as “Unpredictable absorption” and the “dose excreted or recovered in the urine” value [1] is listed as “Approximately 15%”.

For CC[C@]1(O)C[C@H]2CN(CCc3c([nH]c4ccccc34)[C@@](C(=O)OC)(c3cc4c(cc3OC)N(C=O)[C@H]3[C@@](O)(C(=O)OC)[C@H](OC(C)=O)[C@]5(CC)C=CCN6CC[C@]43[C@@H]65)C2)C1 [Vincristine], the “absorption” value [1] is given as “Unpredictable absorption”.

In the case of COC[C@H]1OC(=O)c2coc3c2[C@@]1(C)C1=C(C3=O)[C@@H]2CCC(=O)[C@@]2(C)C[C@H]1OC(C)=O [Wortmannin], the “enhancement of p38 activity” value (p38) is reported as “approximately 6 fold”.
